# Laboratory results reported in publication PMC8082182 (Frontiers in Pharmacology, 2021).
# Where two headings read alike, the source gives them in different places.
# Columns and labels:
# [1] = for AUC0–24, median (IQR) / Cmax,ss, Median (IQR): Improved patients
# From the text: (§1) The TDM concentration data of therapeutic drugs in adults and pediatric patients with Gram-positive bacterial infection were collected.
# (§2) The population pharmacokinetics model was composed of a structural model and random effect models using the first-order conditional estimation method (FOCE) with interaction. Demographic variables (e.g., gender, age, weight, height, body mass index [BMI]), renal function descriptors (serum creatinine, eGFR, creatinine clearance rate [CLCr], and albumin, etc.), and disease conditions (e.g., surgery or injury, chronic kidney disease, diabetes, cancer) were tested as potential covariates. Covariates were evaluated using the stepwise forward-selection method and backward elimination. The population PK model for adults and pediatric patients were evaluated respectively and the model parameters were compared. In order to unify the population PK model for adults and pediatric patients, the datasets were merged and the covariates were consolidated and reevaluated. […] The established population PK model was used to simulate individual PK parameters (Cmin, Cmax, AUC0–24) by Bayesian feedback method for the further PK/PD evaluation.
# [2] = Unified one-compartment population PK model (NONMEM, FOCE with interaction) for Chinese adults and pediatric patients
# From the text: as §1, §2
# [3] = Pulmonary, Not improved patients, IQR not reported for n < 5
smiles,measurement,setting,value
CN[C@H](CC(C)C)C(=O)N[C@H]1C(=O)N[C@@H](CC(N)=O)C(=O)N[C@H]2C(=O)N[C@H]3C(=O)N[C@H](C(=O)N[C@H](C(=O)O)c4cc(O)cc(O)c4-c4cc3ccc4O)[C@H](O)c3ccc(c(Cl)c3)Oc3cc2cc(c3O[C@@H]2O[C@H](CO)[C@@H](O)[C@H](O)[C@H]2O[C@H]2C[C@](C)(N)[C@H](O)[C@H](C)O2)Oc2ccc(cc2Cl)[C@H]1O [vancomycin],"AUC0–24, median (IQR)",[1]; Bloodstream,"215.9 (172.33, 305.85) hr*mg/L"
same,"Cmax,ss, Median (IQR)",[1]; Bloodstream,"23.32 (17.20, 26.57) mg/L"
same,"Cmax,ss, Median","[1]; Bloodstream, Not improved patients, IQR not reported for n < 5",26020 ng/mL
same,"AUC0–24, median (IQR)",[1]; Central nerve system,"303.3 (204.97, 386.18) hr*mg/L"
same,"Cmax,ss, Median (IQR)",[1]; Central nerve system,"28.11 (24.75, 30.66) mg/L"
same,"Cmax,ss, Median","[1]; Central nerve system, Not improved patients, IQR not reported for n < 5",21410 ng/mL
same,"Cmax,ss, Median (IQR)",[1]; Endocarditis,"21.50 (17.20, 23.70) mg/L"
same,"AUC0–24, median (IQR)",[1]; Overall,"217.5 (172.87, 286.34) hr*mg/L"
same,"AUC0–24, median (IQR)",[1]; Pulmonary,"219.2 (183.44, 266.38) hr*mg/L"
same,"Cmax,ss, Median (IQR)",[1]; Pulmonary,"20.24 (16.24, 28.07) mg/L"
same,"Cmax,ss, Median",[1]; [3],22600 ng/mL
same,"Cmin,ss, Median",[1]; [3],3320 ng/mL
same,"AUC0–24, median (IQR)",[1]; Urinary tract,"196.2 (145.03, 287.92) hr*mg/L"
same,"Cmax,ss, Median (IQR)",[1]; Urinary tract,"22.08 (15.80, 25.63) mg/L"
same,"Cmax,ss, Median","[1]; Urinary tract, Not improved patients, IQR not reported for n < 5",29180 ng/mL
same,Age effect on V (θ5),[2]; bootstrap median,0.331
same,Body weight effect on V (θ6),[2]; bootstrap median,0.347
same,V (θ2),[2]; bootstrap median,44.8 L
same,CL (θ1),"[2]; bootstrap median, 1,000 times",3.82 L/h
same,Age effect on V (θ5),"[2]; final model estimate, exponent",0.33
same,Body weight effect on V (θ6),"[2]; final model estimate, exponent",0.349
same,V (θ2),"[2]; final model estimate, typical value at AGE 55, WT 58.25",44.7 L
same,CL (θ1),"[2]; final model estimate, typical value at CLCr 90.28, WT 58.25, adults and pediatric patients",3.83 L/h
